Data: ChEMBL document CHEMBL5046233, “Nitroxoline and its derivatives are potent inhibitors of metallo-β-lactamases” (Eur J Med Chem, 2022)
The source made the active and inactive calls. The rule behind the calls is not given here.

Key:
[1] = tested on: Bacteria; test: Inhibition of recombinant VIM-1 (unknown origin) using fluorocillin as substrate at 30 uM incubated for 30 mins by fluorescence based assay
[2] = tested on: Bacteria; test: Inhibition of recombinant VIM-1 (unknown origin) using fluorocillin as substrate at 3 uM incubated for 30 mins by fluorescence based assay
[3] = tested on: Bacteria; test: Inhibition of recombinant IMP-1 (unknown origin) using fluorocillin as substrate at 10 uM incubated for 30 mins by fluorescence based assay
[4] = tested on: Bacteria; test: Inhibition of recombinant IMP-1 (unknown origin) using fluorocillin as substrate at 3 uM incubated for 30 mins by fluorescence based assay
[5] = tested on: Escherichia coli; test: Antimicrobial activity against Escherichia coli T2359 expressing NDM-1 assessed as inhibition of bacterial growth by CLSI protocol based broth microdilution assay; type: functional
[6] = tested on: Escherichia coli; test: Antimicrobial activity against Escherichia coli T2544 expressing VIM-1 assessed as inhibition of bacterial growth by CLSI protocol based broth microdilution assay; type: functional
[7] = tested on: Klebsiella pneumoniae; test: Antimicrobial activity against Klebsiella pneumoniae clinical isolate T2301 expressing NDM-1 assessed as inhibition of bacterial growth by CLSI protocol based broth microdilution assay; type: functional
[8] = tested on: Escherichia coli; test: Antimicrobial activity against Escherichia coli clinical isolate T2228 expressing VIM-1 assessed as inhibition of bacterial growth by CLSI protocol based broth microdilution assay; type: functional
[9] = tested on: Escherichia coli; test: Potentiation of imipenem-induced antibacterial activity against Escherichia coli T2544 expressing VIM-1 assessed as fold change in imipenem MIC at 32 mg/L by CLSI protocol based broth microdilution assay; type: functional
[10] = tested on: Klebsiella pneumoniae; test: Potentiation of imipenem-induced antibacterial activity against Klebsiella pneumoniae clinical isolate T2301 expressing NDM-1 assessed as fold change in imipenem MIC at 32 mg/L by CLSI protocol based broth microdilution assay; type: functional
[11] = tested on: Escherichia coli; test: Potentiation of imipenem-induced antibacterial activity against Escherichia coli clinical isolate T2228 expressing VIM-1 assessed as fold change in imipenem MIC at 32 mg/L by CLSI protocol based broth microdilution assay; type: functional
[12] = tested on: Klebsiella pneumoniae; test: Potentiation of piperacillin-induced antibacterial activity against Klebsiella pneumoniae clinical isolate T2301 expressing NDM-1 assessed as piperacillin MIC at 32 mg/L by CLSI protocol based broth microdilution assay; type: functional
[13] = tested on: Klebsiella pneumoniae; test: Potentiation of cefuroxime-induced antibacterial activity against Klebsiella pneumoniae clinical isolate T2301 expressing NDM-1 assessed as cefuroxime MIC at 32 mg/L by CLSI protocol based broth microdilution assay; type: functional
[14] = tested on: Klebsiella pneumoniae; test: Potentiation of meropenem-induced antibacterial activity against Klebsiella pneumoniae clinical isolate T2301 expressing NDM-1 assessed as meropenem MIC at 32 mg/L by CLSI protocol based broth microdilution assay; type: functional
[15] = tested on: Escherichia coli; test: Potentiation of piperacillin-induced antibacterial activity against Escherichia coli clinical isolate T2228 expressing VIM-1 assessed as piperacillin MIC at 32 mg/L by CLSI protocol based broth microdilution assay; type: functional
[16] = tested on: Escherichia coli; test: Potentiation of cefuroxime-induced antibacterial activity against Escherichia coli clinical isolate T2228 expressing VIM-1 assessed as cefuroxime MIC at 32 mg/L by CLSI protocol based broth microdilution assay; type: functional
[17] = tested on: Escherichia coli; test: Potentiation of meropenem-induced antibacterial activity against Escherichia coli clinical isolate T2228 expressing VIM-1 assessed as meropenem MIC at 32 mg/L by CLSI protocol based broth microdilution assay; type: functional
[18] = tested on: Citrobacter freundii; test: Potentiation of imipenem-induced antibacterial activity against Citrobacter freundii T2354 expressing VIM-4 assessed as fold change in imipenem MIC at 32 mg/L by CLSI protocol based broth microdilution assay; type: functional
[19] = tested on: Pseudomonas aeruginosa; test: Potentiation of imipenem-induced antibacterial activity against Pseudomonas aeruginosa T2357 expressing VIM-1 assessed as fold change in imipenem MIC at 32 mg/L by CLSI protocol based broth microdilution assay; type: functional
[20] = tested on: Pseudomonas aeruginosa; test: Potentiation of imipenem-induced antibacterial activity against Pseudomonas aeruginosa T2217 expressing VIM-2 assessed as fold change in imipenem MIC at 32 mg/L by CLSI protocol based broth microdilution assay; type: functional
[21] = tested on: Citrobacter freundii; test: Potentiation of imipenem-induced antibacterial activity against Citrobacter freundii T2431 expressing KPC-3 assessed as fold change in imipenem MIC at 32 mg/L by CLSI protocol based broth microdilution assay; type: functional
[22] = tested on: Klebsiella pneumoniae; test: Potentiation of imipenem-induced antibacterial activity against Klebsiella pneumoniae T2432 expressing KPC-9 assessed as fold change in imipenem MIC at 32 mg/L by CLSI protocol based broth microdilution assay; type: functional
[23] = tested on: Escherichia coli; test: Potentiation of imipenem-induced antibacterial activity against Escherichia coli T2433 expressing OXA-48 assessed as fold change in imipenem MIC at 32 mg/L by CLSI protocol based broth microdilution assay; type: functional
[24] = tested on: Escherichia coli; test: Bactericidal activity against Escherichia coli T2359 expressing VIM-1 assessed as killing rate at 0.5 XMIC measured after 24 hrs in presence of imipenem by time-kill assay relative to control; type: functional
[25] = tested on: Klebsiella pneumoniae; test: Antimicrobial activity against Klebsiella pneumoniae T2301 expressing NDM-1 assessed as assessed as inhibition of bacterial growth at 0.5XMIC measured after 24 hrs by time-kill assay; type: functional, organism-based
[26] = tested on: Escherichia coli; test: Antimicrobial activity against Escherichia coli T2359 expressing VIM-1 assessed as assessed as inhibition of bacterial growth at 0.5XMIC measured after 24 hrs by time-kill assay; type: functional, organism-based
[27] = tested on: Escherichia coli; test: Potentiation of imipenem-induced antibacterial activity against Escherichia coli clinical isolate T2228 expressing VIM-1 assessed as imipenem MIC at 32 mg/L by CLSI protocol based broth microdilution assay; type: functional
[28] = tested on: Escherichia coli; test: Synergistic antibacterial activity against Escherichia coli T2359 expressing NDM-1 assessed as fractional inhibitory concentration index in presence of imipenem by checkerboard assay; type: functional
[29] = tested on: Klebsiella pneumoniae; test: Antimicrobial activity against Klebsiella pneumoniae T2301 expressing NDM-1 assessed as inhibition of bacterial growth at 0.5XMIC for 6 hrs by CLSI protocol based broth microdilution assay; type: functional, organism-based
[30] = tested on: Escherichia coli; test: Antimicrobial activity against Escherichia coli T2359 expressing VIM-1 assessed as inhibition of bacterial growth at 0.5XMIC for 6 hrs by CLSI protocol based broth microdilution assay; type: functional, organism-based
[31] = tested on: HUVEC; test: Cytotoxicity against HUVEC cells assessed as late apoptosis by analysing number of sub-diploid events at 0.03 to 100 ug/mL measured after 24 hrs by propidium iodide staining based flow cytometry analysis; type: toxicity, cell-based; settings: human, dose 0.03-100 µg/ml
[32] = tested on: Citrobacter freundii; test: Potentiation of imipenem-induced antibacterial activity against Citrobacter freundii T2354 expressing VIM-4 assessed as imipenem MIC at 32 mg/L by CLSI protocol based broth microdilution assay; type: functional
[33] = tested on: Enterobacter cloacae; test: Potentiation of imipenem-induced antibacterial activity against Enterobacter cloacae T2353 expressing VIM-1 assessed as imipenem MIC at 32 mg/L by CLSI protocol based broth microdilution assay; type: functional
[34] = tested on: Pseudomonas aeruginosa; test: Potentiation of imipenem-induced antibacterial activity against Pseudomonas aeruginosa T2217 expressing VIM-2 assessed as imipenem MIC at 32 mg/L by CLSI protocol based broth microdilution assay; type: functional
[35] = tested on: Klebsiella pneumoniae; test: Potentiation of imipenem-induced antibacterial activity against Klebsiella pneumoniae T2432 expressing KPC-9 assessed as imipenem MIC at 32 mg/L by CLSI protocol based broth microdilution assay; type: functional

N#CCN(Cc1ccccc1)Cc1cc([N+](=O)[O-])c2cccnc2c1O
inhibition [1]: 100% | inhibition [2]: 98% | inhibition [3]: 93% | inhibition [4]: 59% | MIC [5]: > 0.064 µg/mL | MIC [6]: > 0.065 µg/mL | MIC [7]: > 0.066 µg/mL | MIC [8]: > 0.067 µg/mL | fold change (FC) [9]: 64 | fold change (FC) [10]: 64 | fold change (FC) [11]: 8 | MIC [12]: 2.05 µg/mL | MIC [13]: 4.1 µg/mL | MIC [14]: 0.25 µg/mL | MIC [15]: 1 µg/mL | MIC [16]: 0.002 µg/mL | MIC [17]: 0.125 µg/mL | fold change (FC) [18]: 8 | fold change (FC) [19]: 32 | fold change (FC) [20]: 16 | fold change (FC) [21]: 2 | fold change (FC) [22]: 2 | fold change (FC) [23]: 1 | Activity [24]: >99.9% | Activity [25]: inactive | Activity [26]: inactive | MIC [27]: 0.001 µg/mL | fractional inhibitory concentration index (FICI) [28]: 0.265 | inhibition [29]: Active | inhibition [30]: Active | Activity [31]: Toxic | MIC [32]: 0.25 µg/mL | MIC [33]: 0.001 µg/mL | MIC [34]: 0.016 µg/mL | MIC [35]: 0.016 µg/mL
